According to ChEMBL document CHEMBL1156106 (J Med Chem, 2009):

How the values were obtained:
[1] = target: Sodium-dependent dopamine transporter (Homo sapiens, UniProt Q01959); assay: Displacement of [125I]RTI55 from cloned human DAT expressed in HEK293 cells; format: cell-based
[2] = target: Sodium-dependent serotonin transporter (Homo sapiens, UniProt P31645); assay: biochemical; format: cell-based, HEK293
[3] = target: Sodium-dependent noradrenaline transporter (Homo sapiens, UniProt P23975); assay: Displacement of [125I]RTI55 from cloned human NET expressed in HEK293 cells; format: cell-based
Sodium-dependent noradrenaline transporter, sequence (P23975 whole entry): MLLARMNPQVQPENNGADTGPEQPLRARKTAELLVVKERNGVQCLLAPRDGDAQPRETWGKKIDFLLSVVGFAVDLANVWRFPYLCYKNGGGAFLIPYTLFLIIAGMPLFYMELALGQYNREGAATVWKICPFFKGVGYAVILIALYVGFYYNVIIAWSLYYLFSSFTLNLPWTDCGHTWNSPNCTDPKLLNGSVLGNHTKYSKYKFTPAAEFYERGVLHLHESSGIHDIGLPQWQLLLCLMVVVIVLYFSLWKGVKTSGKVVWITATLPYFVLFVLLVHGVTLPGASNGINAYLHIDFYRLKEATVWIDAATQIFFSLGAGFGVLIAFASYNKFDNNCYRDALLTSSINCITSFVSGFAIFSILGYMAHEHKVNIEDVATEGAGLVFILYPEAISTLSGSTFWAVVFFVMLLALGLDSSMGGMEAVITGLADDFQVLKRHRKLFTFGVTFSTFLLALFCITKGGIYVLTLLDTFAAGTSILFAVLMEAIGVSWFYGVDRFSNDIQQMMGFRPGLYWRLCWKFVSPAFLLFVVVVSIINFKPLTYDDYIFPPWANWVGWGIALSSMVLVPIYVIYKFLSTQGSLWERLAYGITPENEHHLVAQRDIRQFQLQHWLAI

[4] = system: Mus musculus; assay: Antidepressant activity in ip dosed mouse assessed as stimulation of locomotor activity relative to cocaine; format: functional
[5] = system: Mus musculus; assay: Antidepressant activity in ip dosed mouse assessed as stimulation of locomotor activity; format: functional
[6] = system: Mus musculus; assay: Antidepressant activity in ip dosed mouse assessed as duration of locomotor activity; format: functional
[7] = system: Mus musculus; assay: Antidepressant activity in ip dosed mouse assessed as time to reach peak stimulation of locomotor activity; format: functional
[8] = system: Rattus norvegicus; assay: Effect on behavioural activity in rat assessed as cocaine-induced lever response at 5 mg/kg, po pretreated with cocaine for 360 mins by drug-discrimination studies; format: functional
[9] = system: Rattus norvegicus; assay: Effect on behavioural activity in rat assessed as cocaine-induced lever response at 25 mg/kg, ip pretreated with cocaine for 15 mins by drug-discrimination studies; format: functional; settings: route intraperitoneal
[10] = system: Rattus norvegicus; assay: Effect on behavioural activity in rat assessed as cocaine-induced lever response at 10 mg/kg, po pretreated with cocaine for 180 mins by drug-discrimination studies; format: functional
[11] = system: Rattus norvegicus; assay: Effect on behavioural activity in rat assessed as cocaine-induced lever response at 5 mg/kg, po pretreated with cocaine for 45 mins by drug-discrimination studies; format: functional
[12] = system: Rattus norvegicus; assay: Effect on behavioural activity in rat assessed as cocaine-induced lever response at 2.5 mg/kg, po pretreated with cocaine for 180 mins by drug-discrimination studies; format: functional
[13] = system: Rattus norvegicus; assay: Effect on behavioural activity in rat assessed as cocaine-induced lever response at 2.5 mg/kg, ip pretreated with cocaine for 15 mins by drug-discrimination studies; format: functional; settings: route intraperitoneal
[14] = system: Rattus norvegicus; assay: Effect on behavioural activity in rat assessed as cocaine-induced lever response at 10 mg/kg, po pretreated with cocaine for 90 mins by drug-discrimination studies; format: functional
[15] = system: Rattus norvegicus; assay: Effect on behavioural activity in rat assessed as cocaine-induced lever response at 10 mg/kg, ip pretreated with cocaine for 15 mins by drug-discrimination studies; format: functional; settings: route intraperitoneal
[16] = system: Rattus norvegicus; assay: Effect on behavioural activity in rat assessed as cocaine-induced lever response at 2.5 mg/kg, po pretreated with cocaine for 360 mins by drug-discrimination studies; format: functional
[17] = system: Rattus norvegicus; assay: Effect on behavioural activity in ip dosed rat assessed as cocaine-induced lever response pretreated with cocaine by drug-discrimination studies; format: functional
[18] = system: Rattus norvegicus; assay: Effect on behavioural activity in rat assessed as cocaine-induced lever response at 5 mg/kg, po pretreated with cocaine for 180 mins by drug-discrimination studies; format: functional
[19] = system: Rattus norvegicus; assay: Effect on behavioural activity in rat assessed as cocaine-induced lever response at 5 mg/kg, ip pretreated with cocaine for 15 mins by drug-discrimination studies; format: functional; settings: route intraperitoneal
[20] = system: Rattus norvegicus; assay: Effect on behavioural activity in rat assessed as cocaine-induced lever response at 2.5 mg/kg, po pretreated with cocaine for 90 mins by drug-discrimination studies; format: functional
[21] = system: Rattus norvegicus; assay: Effect on behavioural activity in rat assessed as cocaine-induced lever response at 10 mg/kg, po pretreated with cocaine for 360 mins by drug-discrimination studies; format: functional
[22] = system: Rattus norvegicus; assay: Effect on behavioural activity in po dosed rat assessed as cocaine-induced lever response pretreated with cocaine by drug-discrimination studies; format: functional
[23] = system: Rattus norvegicus; assay: Effect on behavioural activity in rat assessed as cocaine-induced lever response at 2.5 mg/kg, po pretreated with cocaine for 45 mins by drug-discrimination studies; format: functional

Sodium-dependent dopamine transporter, sequence (Q01959 whole entry): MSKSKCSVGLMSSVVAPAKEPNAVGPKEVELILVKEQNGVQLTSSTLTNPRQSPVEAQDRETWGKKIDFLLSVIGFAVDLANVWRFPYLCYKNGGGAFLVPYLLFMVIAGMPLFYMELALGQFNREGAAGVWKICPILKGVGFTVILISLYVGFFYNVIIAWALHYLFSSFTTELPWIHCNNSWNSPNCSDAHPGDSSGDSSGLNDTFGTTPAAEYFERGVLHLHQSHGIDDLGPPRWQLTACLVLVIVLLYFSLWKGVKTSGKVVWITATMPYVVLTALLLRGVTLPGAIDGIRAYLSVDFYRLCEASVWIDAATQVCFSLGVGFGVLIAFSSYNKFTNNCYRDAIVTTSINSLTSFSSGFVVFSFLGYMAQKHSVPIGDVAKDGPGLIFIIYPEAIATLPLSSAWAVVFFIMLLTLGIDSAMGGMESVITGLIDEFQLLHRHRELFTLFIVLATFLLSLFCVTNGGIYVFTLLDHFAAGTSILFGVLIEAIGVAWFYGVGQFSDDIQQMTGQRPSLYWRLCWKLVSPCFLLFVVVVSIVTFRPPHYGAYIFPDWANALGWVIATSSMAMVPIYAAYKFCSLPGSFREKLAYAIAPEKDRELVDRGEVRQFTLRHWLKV
Sodium-dependent serotonin transporter, sequence (P31645 whole entry): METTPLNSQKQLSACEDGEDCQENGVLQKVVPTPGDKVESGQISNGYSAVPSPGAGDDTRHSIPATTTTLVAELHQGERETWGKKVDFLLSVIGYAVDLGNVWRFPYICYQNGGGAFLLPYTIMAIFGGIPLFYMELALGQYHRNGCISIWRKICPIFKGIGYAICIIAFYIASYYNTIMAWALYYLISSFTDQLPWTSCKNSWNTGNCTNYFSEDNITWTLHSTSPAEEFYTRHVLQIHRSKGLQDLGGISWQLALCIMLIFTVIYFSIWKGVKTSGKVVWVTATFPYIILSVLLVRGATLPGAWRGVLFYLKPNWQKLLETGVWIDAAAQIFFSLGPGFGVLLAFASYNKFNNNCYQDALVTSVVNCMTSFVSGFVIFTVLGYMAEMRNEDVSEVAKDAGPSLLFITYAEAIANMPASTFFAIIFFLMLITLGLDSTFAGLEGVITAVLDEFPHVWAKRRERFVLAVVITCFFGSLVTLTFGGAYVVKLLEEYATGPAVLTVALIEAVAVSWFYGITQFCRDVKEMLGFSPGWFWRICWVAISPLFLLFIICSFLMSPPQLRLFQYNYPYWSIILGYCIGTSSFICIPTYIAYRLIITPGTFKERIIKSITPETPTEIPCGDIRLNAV

Row | SMILES | Ki [1] [µM] | Ki [2] [µM] | Ki [3] [µM] | Activity [4] | ED50 [5] [mg/kg] | Time [6] [min] | Time to peak locomotor stimulation [7] [min] | also measured
1 | CC(NC(C)(C)C)C(=O)c1cccs1 (stereo unspecified) | > 10 | > 10 | > 10 | – | – | – | – | –
2 | Cc1ccc(C(=O)C(C)NC(C)(C)C)cc1Cl (stereo unspecified) | – | – | – | >=77% | ≥ 35.5 | 60 | 10 | –
3 | CC(C)(C)NC1CCc2ccc(Cl)cc2C1=O (stereo unspecified) | > 10 | > 10 | > 10 | – | 2.6 | – | – | –
4 | CC(C(=O)c1cccc(Cl)c1)N(C)C (stereo unspecified) | – | > 10 | – | 64% | 9.3 | 180 | 90 | Activity [8]: 0%; Activity [9]: 100%; Activity [10]: 33%; Activity [11]: 38%; Activity [12]: 33%; Activity [13]: 0%; Activity [14]: 100%; Activity [15]: 83.2%; Activity [16]: 0%; ED50 [17]: 5.9 mg/kg; Activity [18]: 0%; Activity [19]: 83.3%; Activity [20]: 0%; Activity [21]: 18%; ED50 [22]: 5.3 mg/kg; Activity [23]: 19%
5 | Cc1cccc(C(=O)C(C)NC(C)(C)C)c1 (stereo unspecified) | – | > 10 | > 10 | 76% | – | 50 | 10 | –
6 | CCC(NC(C)(C)C)C(=O)c1cccc(Cl)c1 (stereo unspecified) | – | – | – | 62% | 18.6 | 360 | 0 | Activity [9]: 100%; Activity [13]: 0.6%; ED50 [17]: 12.2 mg/kg; Activity [19]: 33.4%
7 | CCCNC(C)C(=O)c1cccc(Cl)c1 (stereo unspecified) | > 10 | > 10 | > 10 | – | – | – | – | –
8 | CC(CNC(C)(C)C)C(=O)c1cccc(Cl)c1 (stereo unspecified) | > 10 | > 10 | > 10 | – | – | – | – | –
